The values that follow come from US20220057378A1, “MICROBIAL MICROFLUIDIC BIOSENSOR” (priority 2015, published 2022).

One experiment deals with Pb2. The experiment can be described thus: microplate specificity test with on- and off-target heavy metals (fluorescence). To be noted: on-target = 1, no-toxin control = 0; As 1.3, Cd 0.44, Cr(VI) 2, Cu 20, Pb 1, Hg 0.1, Co 20, Fe 500, Ni 1.7, Zn 7.6 μM. The format is cell-based, E. coli. An excerpt:
(§1) Each column represents the fluorescence response of a strain to the on-target metal (normalized to “1”) and all off-target metals, where “0” represents the unchanged response for the no-toxin control.
(§2) Although the ability to sense cobalt, iron, nickel, and zinc is of secondary importance, these heavy metals were included as potential off-target inducers because they may be present in the natural water supply under test. […] This combinatorial logic was implemented in algorithms.

The next experiment has as its system Hg3. The experiment is described as above. The format is cell-based, E. coli. To be noted: on-target = 1, no-toxin control = 0, As 1.3, Cd 0.44, Cr(VI) 2, Cu 20, Pb 1, Hg 0.1, Co 20, Fe 500, Ni 1.7, Zn 7.6 μM.
Description: as §1, §2

The test system of a further experiment is Cd1. Described as above. The format is cell-based, E. coli. The settings on record: on-target = 1, no-toxin control = 0; As 1.3, Cd 0.44, Cr(VI) 2, Cu 20, Pb 1, Hg 0.1, Co 20, Fe 500, Ni 1.7, Zn 7.6 μM.
Description: as §1, §2

For a further experiment, the system named is As3. Described as above. The format is cell-based, E. coli. To be noted: on-target = 1, no-toxin control = 0; As 1.3, Cd 0.44, Cr(VI) 2, Cu 20, Pb 1, Hg 0.1, Co 20, Fe 500, Ni 1.7, Zn 7.6 μM.
Description: as §1, §2

In another experiment the test system is Cu1. The experiment is described as above. The format is cell-based, E. coli. To be noted: on-target = 1, no-toxin control = 0; As 1.3, Cd 0.44, Cr(VI) 2, Cu 20, Pb 1, Hg 0.1, Co 20, Fe 500, Ni 1.7, Zn 7.6 μM.
Description: as §1, §2

The next experiment has as its system Cr5. Described as above. The settings on record: on-target = 1, no-toxin control = 0, As 1.3, Cd 0.44, Cr(VI) 2, Cu 20, Pb 1, Hg 0.1, Co 20, Fe 500, Ni 1.7, Zn 7.6 μM. The format is cell-based, E. coli.
Description: as §1, §2

The next experiment relates to E. coli MG1655. The format is cell-based. The settings on record: for Number DE Genes: false discovery rate below 1%. An excerpt:
RNA-Seq results for promoter activation in E. coli MG1655 in response to single and multiple toxin exposures at low and high concentrations: Our analysis of the sequencing data from RNA-Seq experiments to determine candidate genes that are induced upon toxin exposure consisted of three main tasks: sequence alignment, quantification of gene expression, and identification of differentially expressed genes. Sequence alignment: Reads were aligned to the reference E. coli K-12 substr. MG1655 genome using a tolerance of at most two mismatches per alignment to protect against sequencing errors. The alignment was performed using Bowtie software, 5 which is known to be very efficient in aligning reads to a reference genome. Without being limiting, Bowtie software 5 can be used for the alignment. Those skilled in the art will appreciate that there are many such software programs for performing alignments.
Quantification of gene expression: The expression level of each gene was determined as a function of the number of aligned reads mapping to the gene. […] Additionally, we implemented our own algorithms for sequence alignment and quantification of gene expression in order to crosscheck all results.
Identification of differentially expressed genes: Finally, a set of statistical and information theory algorithms were applied in order to extract not only differentially expressed (DE) genes for each toxin with respect to the control samples (pure water) but also toxin-specific genes. DESeq is a standard tool for identifying DE genes that allowed us to select sensitive genes with differential expression between the control samples (pure water) and the cells exposed to toxin. It assumes that the number of counts for each gene across experimental replicates follows a negative binomial distribution (8, 9). We considered genes with a False Discovery Rate (FDR) lower than 1% as DE in order to ensure statistically robust DE genes. […] Additionally, genes with the largest number of counts and expression levels are preferable in order to maximize the signal-to-noise ratio. When it is not possible to find toxin-specific genes, the next generation of good candidates is formed by those genes satisfying the above properties for a small subset of toxins (multiple-toxin response). It is desirable to have single-toxin-specific genes for several of the toxins in the combination in order to determine toxin-specific multi-gene-responses by means of logical operations. […] Therefore, we have developed information theoretic measures to improve the toxin separability. The core idea of the approach is that low entropies (or highly informative genes) correspond to toxin-specific genes, while large entropies (low information) are associated with scenarios in which DE fold-changes across different toxins are similar and should be discarded.
(§3) Milestone 2.1: Expose target cells to toxins of interest over four orders of magnitude of concentration and extract RNA: Three strains of bacteria were exposed to relevant levels of all toxins and extracted RNA. The toxin exposure protocol involves first growing a culture of bacterial cells to mid-log phase (OD≤0.2). […] Finally, cellular RNA was stabilized using Qiagen RNA Protect reagent, the cells were centrifuged, and the pellet was frozen at −80° C. To investigate the cellular RNA response to toxin insult, we exposed E. coli MG1655, E. coli LABEC01, and B. subtilis 168 cells to the toxins and concentrations shown in Table 7 and extracted RNA.
Milestone 2.5: Prepare isolated RNA for Illumina sequencing using vendor provided reagents and carry out sequencing: We have prepared libraries and carried out sequencing for all toxins of interest.

The next experiment deals with GFP sensor strains. The experiment can be described thus: SVM classification of GFP sensor responses (toxin / no toxin). The format is cell-based. The settings on record: from classification accuracy and ROC curves. The source says: Computational models to determine the threshold of detection for specific sensors based on models of experimental GFP responses. We used machine learning techniques to determine the relationships between the GFP output signal and the presence of a toxin. We have created a database containing the collected sensor response data. We have quantified the GFP threshold of detection for each sensor construct. We have constructed Receiver Operating Characteristic (ROC) curves for each sensor to achieve robust sensing. We constructed machine learning models capable of inferring the relationships between the GFP sensor responses and the presence or absence of a toxin at a given concentration. The algorithm learns these relationships from a set of training samples (GFP sensor responses) defined by the set of experimental conditions from which they were generated. The aim of the algorithm is to provide a general method capable of determining the experimental conditions associated with GFP sensor responses through the use of historical data. Specifically, we have built classification models based on Support Vector Machines (SVMs), which is one of the most popular classifiers due to its excellent performance in many contexts and its solid mathematical basis (1). For each toxin and concentration, we solved a binary classification problem in which the positive class represents the presence of the toxin in water and the negative class is associated with clean environments. Patterns were constructed with features containing GFP sensor responses at various timestamps to capture the temporal dynamics of the GFP signal. The optimal meta-parameters of the SVM classifier were determined by applying a 5-crossvalidation during the training phase (2). In order to have a reliable estimate of the performance of the model when deployed in real environments, we measured its performance over a set of samples (test patterns) not seen during the training phase. The SVM's performance was determined by the percentage of test samples correctly labeled as toxin/no toxin (classification accuracy). 80% of samples were used for training the SVM models and the remaining 20% of samples was used to evaluate their effectiveness. We generated 20 random training/test partitions to have an estimate of performance independent of the data partition.
Specifically, we have built classification models based on Support Vector Machines (SVMs), which is one of the most popular classifiers due to its excellent performance in many contexts and its solid mathematical basis. For each toxin and concentration, we solved a binary classification problem in which the positive class represents the presence of the toxin in water and the negative class is associated with clean environments. Patterns were constructed with features containing GFP sensor responses at various timestamps to capture the temporal dynamics of the GFP signal. The optimal meta-parameters of the SVM classifier were determined by applying a 5-crossvalidation during the training phase.
In order to have a reliable estimate of the performance of the model when deployed in real environments, we measured its performance over a set of samples (test patterns) not seen during the training phase. The SVM's performance was determined by the percentage of test samples correctly labeled as toxin/no toxin (classification accuracy). 80% of samples were used for training the SVM models and the remaining 20% of samples was used to evaluate their effectiveness. We generated 20 random training/test partitions based on data collected in single-strain chips (no crosstalk data) to have an estimate of performance.

Another experiment relates to Mall construct. The experiment can be described thus: malathion construct loaded into the sensor device. The format is cell-based, E. coli. To be noted: prototype sensor.
The subject of the next experiment is cellular esterases. Put plainly: inhibition of cellular esterase activity (CFDA cleavage) in gill chip. The format is cell-based, S. cerevisiae. The settings on record: 0.725 g/l malathion; two sequential exposures; recovers subsequently. On the procedure:
Additional constructs based on this promoter were generated while collecting on-chip response data for all other sensing strains using the sensor prototypes was performed. […] S. cerevisiae was loaded into a gill chip and CFDA (carboxyfluorescein diacetate) was added to the growth medium. […] Because CFDA breaks down in the medium over time thereby increasing the background signal, fresh medium+CFDA was introduced at 1,500 and 2,000 min. This explains the drift in baseline GFP during this period, which can be eliminated in subsequent experiments by mixing dye and medium on-chip.

Experiment [1] relates to B. subtilis NCIB 3610/Amm3. The experiment can be described thus: 18-strain chip induction. The settings on record: 5 ppm NH4-N, GFP production drops. The format is cell-based. An excerpt: In an embodiment herein, the toxin response data across 18 unique sensing strains were also collected using a new chip design that houses 16 E. coli strains and 2 B. subtilis strains. The B. subtilis NCIB 3610/Amm3 construct is a “lights-off” sensor, meaning that GFP production drops when ammonium is introduced, following a slight increase due to faster growth on this preferred nitrogen source. […] By combining these sensor responses, we can identify cobalt by the unique response of Pb7 alone and lead by the unique combination of Zn6, Pb7, and Pb8 responses.

In the next experiment the test system is B. subtilis 168. The experiment can be described thus: RNA-Seq after toxin exposure. The format is cell-based. On the procedure: as §3
We used RNA-Seq to verify the nasB promoter in B. subtilis 168 as a sensitive and specific promoter for the last remaining toxin, ammonium (see FIG. 2). […] This is desirable because, unlike the other water toxins of interest, ammonium is expected to increase the growth rate of biosensor cells. In this situation, a “lights-on” sensor could be triggered by any substance that increases the growth rate and resulting GFP production ability of cells, whereas a “lights-off” sensor remains immune to this effect.

Like-named read-outs stand apart in the source and are kept apart here.

Turning to `[Fe]` [Iron], in the experiment with Pb2, the “fluorescence response of strain Pb2 (on-target lead)” value (shortened to “fluorescence response of strain Pb2”) is reported as 0.96. In the experiment with Hg3, the “fluorescence response of strain Hg3 (on-target mercury)” value (shortened to “fluorescence response of strain Hg3”) is reported as −0.38. The “fluorescence response of strain Cd1 (on-target cadmium)” value (“fluorescence response of strain Cd1” for short) in the experiment with Cd1 is −0.31. For the same compound, the “fluorescence response of strain As3 (on-target arsenic)” value (“fluorescence response of strain As3” below) in the experiment with As3 is given as −0.06. Besides, the “fluorescence response of strain Cu1 (on-target copper)” value (shortened to “fluorescence response of strain Cu1”) with Cu1 came out at 0.17. The results for the “fluorescence response of strain Cr5 (on-target chromium(VI))” value (shortened to “fluorescence response of strain Cr5”) in the experiment on Cr5 and in the experiment on Cr5 (listed as iron) were 0.86 and “sensitive”, respectively. The “Number DE Genes” value in the experiment on E. coli MG1655 (high concentration) turned out to be 70; in the experiment on E. coli MG1655 (low concentration) it was 32.

In the case of `CCOC(=O)CC(SP(=S)(OC)OC)C(=O)OCC` (stereo not drawn) [Malathion, malathion], the threshold of detection in the experiment on GFP sensor strains was 72.5 mg/L. In the experiment with Mall construct, the “response of Mall construct in sensor device” value was “did not produce a discernable response”. Moreover, the “cell fluorescence (CFDA cleavage by cellular esterases)” value in the experiment with cellular esterases is “significantly drops”. Besides, the “response of the nemR promoter” value in the experiment on E. coli MG1655 (RNA-Seq mean fold change) is “responds to high concentrations”. Further, the “Number DE Genes” value in the experiment on E. coli MG1655 (high concentration) is recorded as 41; with E. coli MG1655 (low concentration), 370.

With `[Ni]` [Nickel], in the experiment on Pb2, the “fluorescence response of strain Pb2” value was determined as 0.16. Further, the “fluorescence response of strain Cd1” value in the experiment with Cd1 is −0.08. In addition, in the experiment on As3, the “fluorescence response of strain As3” value was −0.08. For the same compound, in the experiment with Cu1, the “fluorescence response of strain Cu1” value is recorded as −0.05. Moreover, the “fluorescence response of strain Cr5” value with Cr5 is given as −0.35. In addition, the “Number DE Genes” value in the experiment on E. coli MG1655 (high concentration) was found to be 95; in the experiment on E. coli MG1655 (low concentration), 43.

For the compound `[Zn]` [Zinc], the “fluorescence response of strain Pb2” value in the experiment with Pb2 was found to be 1.06. In addition, in the experiment with Hg3, the “fluorescence response of strain Hg3” value is listed as 0.78. In the experiment on Hg3 (listed as zinc), the “fluorescence response of strain Hg3” value is “sensitive”. The “fluorescence response of strain Cd1” value in the experiment with Cd1 is on record as −0.09. The “fluorescence response of strain As3” value in the experiment with As3 was −0.14. Further, in the experiment with Cu1, the “fluorescence response of strain Cu1” value is −0.08. The “fluorescence response of strain Cr5” value in the experiment on Cr5 is 0.35. Also, in the experiment on E. coli MG1655 (RNA-Seq mean fold change), the “response of the mntH promoter” value is “high concentrations of zinc alone”; the “response of the shiA promoter” value is “high concentrations of zinc alone”; the “response of the yjjZ promoter” value is “responds monotonically to increasing concentrations”; the “response of the zntA promoter” value was “shows sensitivity to low and high concentrations”. For the same compound, the “response of the zraP promoter” value in the experiment on E. coli MG1655 (RNA-Seq mean fold change) was “responds specifically and monotonically to increasing concentrations”. Besides, the “Number DE Genes” value with E. coli MG1655 (high concentration) amounted to 596. The “Number DE Genes” value in the experiment with E. coli MG1655 (low concentration) was determined as 24.

Turning to Ammonium, the threshold of detection entry in the experiment on GFP sensor strains was “one”. For the same compound, the “GFP response of Amm3 strain (lights-off sensor)” value in experiment [1] is recorded as “respond sensitively”. Moreover, in the experiment with B. subtilis 168, the “response of the nasB promoter” value is “sensitive and specifically downregulated”.
